PMC11696576, “Next generation thiazolyl ketone inhibitors of cytosolic phospholipase A2 α for targeted cancer therapy” (Nature Communications, 2025)
Values joined by “and” are separate entries in the source; they are usually repeats but may differ in a detail not shown here. Equal entries are not always repeated.

Tested on: HL-60 cells
Test: cell viability, resazurin assay, HL-60
Format: cell-based, human
Conditions: for cell viability relative to 0 µM = 100 (Figure S7b): listed as AVX420
Text: Bjørn Tore Gjertsen (University of Bergen, Norway). […] The cell lines were not authenticated.
Figure S7. Sensitivity of cell lines derived from hematological malignancies. a. cell viability expressed as relative light units ( RLU) is plotted for all cell lines in the screen that were de-rived from hematological malignancies. b. corresponding IC50 values calculated by non-linear regression analysis. c. Cell viability assessed by resazurin assays in MV-4-11 and HL-60 cells.
Data were normalized to the vehicle-treated control (100%) and are the mean of 4 biological replicates ±stdev (MV-4-11) and 5 biological replicates ±stdev (HL-60), Non-linear regres- […]

Compound: CCCCCCCOc1ccc(OCC(=O)c2nc(C(=O)OC)cs2)cc1 [GK420]
- cell viability relative to 0 µM = 100 (Figure S7b) (HL-60, 1 µM, rep1-5): 97.3013 and 90.6778 and 115.865 and 99.353 and 90.3923
- cell viability relative to 0 µM = 100 (Figure S7b) (HL-60, 3 µM, rep1-5): 90.5903 and 85.7617 and 98.8696 and 77.2301 and 87.8872
- cell viability relative to 0 µM = 100 (Figure S7b) (HL-60, 5 µM, rep1-5): 71.3359 and 44.5692 and 65.87 and 61.5884 and 62.96
- cell viability relative to 0 µM = 100 (Figure S7b) (HL-60, 7 µM, rep1-5): 63.2164 and 43.3688 and 54.7108 and 42.3668 and 54.7116
- cell viability relative to 0 µM = 100 (Figure S7b) (HL-60, 10 µM, rep1-5): 36.7957 and 43.3263 and 38.5629 and 49.5907
- cell viability relative to 0 µM = 100 (Figure S7b) (HL-60, 12 µM, rep1-5): 32.4548 and 37.5058 and 42.0594 and 45.299
- cell viability relative to 0 µM = 100 (Figure S7b) (HL-60, 15 µM, rep1-5): 31.4644 and 36.8417 and 35.3195 and 49.7069
- cell viability relative to 0 µM = 100 (Figure S7b) (HL-60, 20 µM, rep1-5): 29.4668 and 34.076 and 29.9279 and 43.7902
- viability at 10 µM (Homo sapiens, HL-60, HL-60, 10 µM, rep1-5, read-out: cell viability relative to 0 µM = 100 (Figure S7b)): 49.4%
- viability at 12 µM (Homo sapiens, HL-60, HL-60, 12 µM, rep1-5, read-out: cell viability relative to 0 µM = 100 (Figure S7b)): 45.2%
- viability at 15 µM (Homo sapiens, HL-60, HL-60, 15 µM, rep1-5, read-out: cell viability relative to 0 µM = 100 (Figure S7b)): 42.5%
- viability at 20 µM (Homo sapiens, HL-60, HL-60, 20 µM, rep1-5, read-out: cell viability relative to 0 µM = 100 (Figure S7b)): 36.3%
- IC50 (Homo sapiens, HL-60, resazurin assay): 4.6 µM
